Results reported in patent US20100209345A1, “Fluorinated Ligands for Targeting Peripheral Benzodiazepine Receptors” (Australian Nuclear Science & Technology Organisation, priority 2006, published 2010).

Key:
[1] = molecular target: T1, peripheral benzodiazepine receptors (Rattus norvegicus, UniProt P16257); test: In vivo blocking / competition of tracer uptake by pre-treatment with PBR and CBR ligands; conditions: rats; for Tracer uptake after pre-treatment with PK 11195 / Tracer uptake after pre-treatment with Ro 5-4864: PBR-expressing tissues (brain/peripheral organs, adrenals apart); for Tracer uptake after pre-treatment with flumazenil (central benzodiazepine ligand): flumazenil 1 mg/kg 5 min prior to tracer, brain or peripheral organs
T1 construct: high uptake in the tissues which have known PBR sites; from tissue; host or cells: organs of living SD rats (brain and peripheral tissues), in vivo
Protocol: The criteria for significance were **p<0.01 (highly significant) and *p<0.05 (significant). No stars implies not statistical difference from normals or controls.
(§1) The biodistribution of PBR132* was undertaken in SD rats and analysis up to 4 h p.i. in the brain and peripheral tissues was performed. The specificity and selectivity of the tracer were assessed by pre-treatment with PBR and Central benzodiazepine receptor (CBR) specific ligands (1 mg/kg) 5 min prior to injection of PBR132*.
(§2) The biodistribution of PBR 147* was performed in SD rats and brain and peripheral tissues were analysised at 15, 30 min, 1, and 4 h p.i. The specificity and selectivity of the tracer was assessed by pre-treatment of the animals with the PBR ligands PK11195 and Ro 5-4864 and with Flumazenil for CBR at 1 mg/kg 5 min prior to injection of PBR 147*
(§3) The biodistribution of PBR102* and PBR111* were performed in SD rats and brain and peripheral tissues analysed at 15, 30 min, 1, and 4 h p.i. The specificity and selectivity of the tracers were assessed by pre-treatment with the PBR ligands PK11195 and Ro 5-4864 and with Flumazenil for CBR at 1 mg/kg 5 min prior to injection of the corresponding tracers.
(§4) The specificity and selectivity of the tracers were assessed by pre-treatment with the PBR ligands PK11195 and Ro 5-4864 and with Flumazenil for CBR at 1 mg/kg 5 min prior to injection of the corresponding tracers.

[2] = Biodistribution of 18F-labelled tracers in rats; format: in vivo
Protocol: [^18F]Fluoride, in the form of H^18F, was produced by the ^18O(p,n)^18F nuclear reaction by bombardment of ^18O-enriched water target. The aqueous [^18F]fluoride solution was added to a 2.5-mL wheaton vial containing dry acetonitrile (1 mL), Kryptofix 2.2.2 (5 mg, 13.3 μmol) and potassium carbonate (2 mg, 14.5 μmol). The solvent was evaporated under a stream of nitrogen at 90° C. with a reducing vacuum. This azeotropic drying was repeated twice by further addition of acetonitrile (2×1 mL). The tosylate precursor 2-(2-(4-(2-tosylethoxy)phenyl)-6-chloroimidazo[1,2-a]pyridin-3-yl)-N,N-diethylacetamide (2 mg, 3.6 μmol) was dissolved in acetonitrile (1 ml) and added to the dried K222.K2CO3.KF complex. Stirring and heating at 90° C. continued for 10 to 15 mins before the reaction mixture was diluted with mobile phase and purified by reverse phase HPLC on an Alltech Alltima, C18, 10μ, 250×22 mm column eluting at 10 mLs/min with 45% acetonitrile, 55% water with 0.1% TFA.
as §1, §2, §3, §4

[3] = SD rats, 15 min, decay correction not stated
[4] = SD rats, 4 hours, decay correction not stated
[5] = rats, 15 min, corrected for decay of 18F
[6] = rats, 30 min, corrected for decay of 18F
[7] = rats, 60 min, corrected for decay of 18F
[8] = rats, 4 hours, corrected for decay of 18F

## CCN(CC)C(=O)Cc1c(-c2ccc(C(C)(C)C)cc2)nc2ccc([18F])nn12 [PBR132*, 2-(2-(4-tert-butylphenyl)-6-fluoroimidazo[1,2-b]pyridazin-3-yl)-N,N-diethylacetamide]
[1]; PK 11195 1 mg/kg 5 min prior to tracer
  Tracer uptake after pre-treatment with PK 11195: decreased
[1]; PK 11195 1 mg/kg 5 min prior to tracer, listed as [^18F]PBR132
  Tracer uptake after pre-treatment with PK 11195: blocking effect
[1]; PK 11195 1 mg/kg 5 min prior to tracer, adrenals
  Tracer uptake in the adrenals after pre-treatment with PK 11195: increase
[1]; Ro 5-4864 1 mg/kg 5 min prior to tracer
  Tracer uptake after pre-treatment with Ro 5-4864: decreased
[1]; Ro 5-4864 1 mg/kg 5 min prior to tracer, listed as [^18F]PBR132
  Tracer uptake after pre-treatment with Ro 5-4864: blocking effect
[1]; Ro 5-4864 1 mg/kg 5 min prior to tracer, adrenals
  Tracer uptake in the adrenals after pre-treatment with Ro 5-4864: increase
[1]
  Tracer uptake after pre-treatment with flumazenil (central benzodiazepine ligand): no effect
[1]; listed as [^18F]PBR132
  Tracer uptake after pre-treatment with flumazenil (central benzodiazepine ligand): does not reduce
[1]; non-radioactive analogue 1 mg/kg, PBR-expressing tissues
  Tracer uptake after pre-treatment with the non-radioactive analogue: blocking effect
[2]; [3]
  Biodistribution: Bone: 1 % ID/g
  Biodistribution: Heart: 8 % ID/g
  Biodistribution: Kidney: 4 % ID/g
  Biodistribution: Lungs: 16 % ID/g
  Biodistribution: Olfactory bulbs: 0.63 % ID/g
[2]; SD rats, 30 min, decay correction not stated
  Biodistribution: Adrenals: 13 % ID/g
[2]; [4]
  Biodistribution: Bone: 3.3 % ID/g
  Biodistribution: Heart: less than 2.3 % ID/g
  Biodistribution: Kidney: less than 2.3 % ID/g
  Biodistribution: Lungs: less than 2.3 % ID/g
  Biodistribution: Olfactory bulbs: 0.25 % ID/g
[2]; SD rats, throughout 15 min to 4 h
  Blood activity level / concentration in the blood over the 4 h study period: low
[2]; [5]
  Biodistribution: Adrenals: 10.03 ± 1.11 % ID/g
  Biodistribution: Bladder: 0.73 ± 0.33 % ID/g
  Biodistribution: Blood: 0.41 ± 0.05 % ID/g
  Biodistribution: Bone: 1.04 ± 0.14 % ID/g
  Biodistribution: Brain: 0.35 ± 0.03 % ID/g
  Biodistribution: GIT: 1.08 ± 0.08 % ID/g
  Biodistribution: Heart: 8.13 ± 0.77 % ID/g
  Biodistribution: Kidney: 4.10 ± 0.28 % ID/g
  Biodistribution: Liver: 1.22 ± 0.17 % ID/g
  Biodistribution: Lungs: 16.09 ± 2.56 % ID/g
  Biodistribution: Muscle: 0.89 ± 0.28 % ID/g
  Biodistribution: Olfactory bulbs: 0.63 ± 0.09 % ID/g
  Biodistribution: Pancreas: 2.01 ± 0.26 % ID/g
  Biodistribution: Skin: 0.60 ± 0.09 % ID/g
  Biodistribution: Spleen: 5.85 ± 0.93 % ID/g
  Biodistribution: Stomach: 0.58 ± 0.19 % ID/g
  Biodistribution: Testes: 0.31 ± 0.03 % ID/g
  Biodistribution: Thymus: 0.78 ± 0.20 % ID/g
  Biodistribution: Thyroid: 8.87 ± 1.06 % ID/g
[2]; [6]
  Biodistribution: Adrenals: 13.21 ± 1.16 % ID/g
  Biodistribution: Bladder: 0.87 ± 0.36 % ID/g
  Biodistribution: Blood: 0.32 ± 0.05 % ID/g
  Biodistribution: Bone: 1.25 ± 0.18 % ID/g
  Biodistribution: Brain: 0.23 ± 0.02 % ID/g
  Biodistribution: GIT: 1.36 ± 0.22 % ID/g
  Biodistribution: Heart: 8.34 ± 0.86 % ID/g
  Biodistribution: Kidney: 3.94 ± 0.54 % ID/g
  Biodistribution: Liver: 1.18 ± 0.33 % ID/g
  Biodistribution: Lungs: 11.58 ± 2.11 % ID/g
  Biodistribution: Muscle: 0.91 ± 0.10 % ID/g
  Biodistribution: Olfactory bulbs: 0.46 ± 0.11 % ID/g
  Biodistribution: Pancreas: 1.97 ± 0.32 % ID/g
  Biodistribution: Skin: 0.65 ± 0.08 % ID/g
  Biodistribution: Spleen: 6.89 ± 0.80 % ID/g
  Biodistribution: Stomach: 0.64 ± 0.11 % ID/g
  Biodistribution: Testes: 0.31 ± 0.03 % ID/g
  Biodistribution: Thymus: 0.80 ± 0.06 % ID/g
  Biodistribution: Thyroid: 9.15 ± 0.87 % ID/g
[2]; [7]
  Biodistribution: Adrenals: 11.24 ± 2.03 % ID/g
  Biodistribution: Bladder: 0.84 ± 0.08 % ID/g
  Biodistribution: Blood: 0.17 ± 0.00 % ID/g
  Biodistribution: Bone: 2.06 ± 0.10 % ID/g
  Biodistribution: Brain: 0.12 ± 0.00 % ID/g
  Biodistribution: GIT: 1.78 ± 0.04 % ID/g
  Biodistribution: Heart: 6.87 ± 0.53 % ID/g
  Biodistribution: Kidney: 3.24 ± 0.15 % ID/g
  Biodistribution: Liver: 0.67 ± 0.06 % ID/g
  Biodistribution: Lungs: 6.40 ± 0.50 % ID/g
  Biodistribution: Muscle: 0.50 ± 0.03 % ID/g
  Biodistribution: Olfactory bulbs: 0.36 ± 0.05 % ID/g
  Biodistribution: Pancreas: 1.20 ± 0.19 % ID/g
  Biodistribution: Skin: 0.64 ± 0.07 % ID/g
  Biodistribution: Spleen: 5.56 ± 0.67 % ID/g
  Biodistribution: Stomach: 0.47 ± 0.05 % ID/g
  Biodistribution: Testes: 0.32 ± 0.01 % ID/g
  Biodistribution: Thymus: 0.88 ± 0.07 % ID/g
  Biodistribution: Thyroid: 18.30 ± 1.00 % ID/g
[2]; [8]
  Biodistribution: Adrenals: 13.51 ± 0.61 % ID/g
  Biodistribution: Bladder: 0.99 ± 0.30 % ID/g
  Biodistribution: Blood: 0.07 ± 0.00 % ID/g
  Biodistribution: Bone: 3.28 ± 0.65 % ID/g
  Biodistribution: Brain: 0.07 ± 0.00 % ID/g
  Biodistribution: GIT: 2.93 ± 0.39 % ID/g
  Biodistribution: Heart: 4.71 ± 0.31 % ID/g
  Biodistribution: Kidney: 2.31 ± 0.17 % ID/g
  Biodistribution: Liver: 0.31 ± 0.03 % ID/g
  Biodistribution: Lungs: 2.42 ± 0.25 % ID/g
  Biodistribution: Muscle: 0.24 ± 0.06 % ID/g
  Biodistribution: Olfactory bulbs: 0.25 ± 0.03 % ID/g
  Biodistribution: Pancreas: 0.57 ± 0.10 % ID/g
  Biodistribution: Skin: 0.67 ± 0.17 % ID/g
  Biodistribution: Spleen: 2.64 ± 0.36 % ID/g
  Biodistribution: Stomach: 0.72 ± 0.24 % ID/g
  Biodistribution: Testes: 0.42 ± 0.06 % ID/g
  Biodistribution: Thymus: 1.02 ± 0.06 % ID/g
  Biodistribution: Thyroid: 7.41 ± 0.68 % ID/g
[2]; rats, in vivo biodistribution
  Uptake in tissues which have known PBR sites: high uptake
